Data published in article PMC9739815, “Akt/mTOR Targeting Activity of Resveratrol Derivatives in Non-Small Lung Cancer” (Molecules, 2022).

How the values were obtained:
[1] = tested on: H460 cells; assay: MTT cell viability assay, H460 cells; type: cell-based; details: Homo sapiens, NCI-H460, 24 h, 0–200 µM, read-out: IC50 ± SEM of NSCLC cells, H460
Experimental: (§1) NSCLC cells were cultured overnight and treated with various concentrations (0–200 µM) of resveratrol derivatives (RD1-RD5) and resveratrol for 24 h, and then cell viability was analyzed by the 3-(4, 5-dimethylthiazolyl-2)-2, 5-diphenyltetrazolium bromide (MTT) assay to evaluate the percentage of cell viability. All of the data were calculated on the basis of the results of three replicated samples. […] The difference of the structure at C-4 was that the hydroxyl group of RD2 was modified to the methoxy group of RD3 and at C-3, the methoxy group of RD2 was changed to the hydroxyl group of RD3. […] Furthermore, resveratrol decreased cell viability in NSCLC cells (A549, H23, and H460) with the IC50 at more than 200 µM which was the same RD3 (Figure 2a–d). This different action on cancer cells as a result of chemical structure modification has provided an insight for the structure–activity relationship that may facilitate the further development of the potent compound from the lead structure of resveratrol derivatives. Cell viability was investigated by MTT colorimetric assay. All cell lines were cultured at the density of 1 × 10^4 cells per well in a 96-well tissue culture plate and incubated in an incubator. After that, cells were treated with various concentrations of RD1-RD5 for 24 h at 37 °C and analyzed by the MTT assay according to the manufacturer’s protocol (Sigma Chemical, St. Louis, MO, USA). In calculating the cell viability by a microplate reader (Anthros, Durham, NC, USA), the measured absorbance of treated cells were divided by the value of untreated cells and are reported as a percentage.

[2] = tested on: A549 cells; assay: MTT cell viability assay, A549 cells; type: cell-based; details: Homo sapiens, 24 h, 0–200 µM, read-out: IC50 ± SEM of NSCLC cells, A549
Experimental: as §1

[3] = tested on: H23 cells; assay: MTT cell viability assay, H23 cells; type: cell-based; details: Homo sapiens, NCI-H23, 24 h, 0–200 µM, read-out: IC50 ± SEM of NSCLC cells, H23
Experimental: as §1

[4] = tested on: p-mTOR/mTOR in H23 cells; assay: Western blot of p-mTOR/mTOR, H23 cells; type: cell-based, human; details: 12 h
Experimental: (§2) NSCLC cells (A549 and H23) were treated with RD2 and RD3 (10–100 μM) for 12 h. After which, all cells were collected and the expression levels of Akt, p-Akt, mTOR, and p-mTOR were investigated by Western blot analysis (Figure 5a, Figure 6a, Figure 7a and Figure 8a). […] Immunofluorescence staining of Akt, p-Akt, mTOR, and p-mTOR was performed in RD2 and RD3 treated cells. The results further confirm the effect of RD2 and RD3 on the Akt/mTOR pathway.
(§3) Western blotting was used to detect the presence of specific protein. Cells were seed at a density of 4 × 10^5 cells/well in 6 well plates overnight. Cells were treated with various concentrations RD1-RD5 were treated for 12 h. After treatment, the apoptosis cells were collected by centrifuging media with 1500 rpm for 5 min and aspirating supernatants. Then, cells were washed with cold 1× PBS and incubated with 1X RIPPA 40 µL containing 10× RIPA buffer 100 µL, protease inhibitors (PI) 100 µL, PMSF 10 µL, and Triton × 10 µL for 30 min on ice. BCA protein assay kit from Pierce Biotechnology (Rockford, IL, USA) analyzed protein concentrations. The extracted proteins were separated by 7.5–10% sodium dodecyl sulfate polyacrylamide gel electrophoresis (SDS-PAGE) and transferred to polyvinylidene difluoride membrane (PVDF). Then, the membranes were blocked with 5% non-fat milk powder for 2 h. After that, they were incubated with primary antibody at 4 °C Akt (#9272), phosphorylated Akt (#4060), mTOR (#2983S), and p-mTOR (#5536S) overnight. The membranes were washed with Tris-buffered saline/Tween 20 3 times and incubated with secondary antibodies for 2 h. Finally, the protein bands were detected using chemiluminescence substrate and exposed by Chemiluminescent ImageQuant LAS4000. Protein bands were analyzed using Image J software.

[5] = tested on: p-mTOR/mTOR in A549 cells; assay: Western blot of p-mTOR/mTOR, A549 cells; type: cell-based, human; details: 12 h
Experimental: as §2, §3

[6] = tested on: DP cells; assay: MTT cell viability assay, normal dermal papilla (DP) cells; type: cell-based; details: 24 h; for effect on cell viability percentages in DP cells: normal human dermal papilla cells; for IC50: Human dermal papilla cell, 0–200 µM, read-out: IC50 ± SEM of DP cells
Experimental: To confirm the selective cytotoxicity of resveratrol derivatives (RD2 and RD3) in cancer cells, resveratrol derivatives (RD2 and RD3) and resveratrol were determined for the cytotoxic profile in normal human cells, dermal papilla (DP).
Cell viability was investigated by MTT colorimetric assay. All cell lines were cultured at the density of 1 × 10^4 cells per well in a 96-well tissue culture plate and incubated in an incubator. After that, cells were treated with various concentrations of RD1-RD5 for 24 h at 37 °C and analyzed by the MTT assay according to the manufacturer’s protocol (Sigma Chemical, St. Louis, MO, USA). In calculating the cell viability by a microplate reader (Anthros, Durham, NC, USA), the measured absorbance of treated cells were divided by the value of untreated cells and are reported as a percentage.

[7] = tested on: p-Akt/Akt in H23 cells; assay: Western blot of p-Akt/Akt, H23 cells; type: cell-based, human; details: 12 h
Experimental: as §2, §3

[8] = tested on: p-mTOR in A549 cells; assay: Immunofluorescence staining of p-mTOR, A549 cells; type: cell-based, human; details: 12 h, RD2 effect at 50–100 μM
Experimental: as §2
(§4) Cells were seeded at a density of 1 × 10^4 cells/well in 6-well plates overnight. Cells were treated with various concentrations resveratrol derivatives ([…]) and were treated for 12 h. Then, they were fixed with 4% paraformaldehyde in PBS for 15 min, permeabilized for 5 min with 0.5% Triton-X, and blocked with 0.1% Triton-X in 10% FBD in PBS for 1 h at room temperature. Cells were added to the primary antibody Akt (#9272), phosphorylated Akt (#4060), mTOR (#2983S), and p-mTOR (#5536S). Then, they were incubated at 4 °C overnight. After that, they were incubated with secondary antibody for 1 h and stained with Hoechst 33342 for 30 min at room temperature in a dark place. The images were visualized under a fluorescent microscope (Olympus DP70, Melville, NY, USA) and analyzed by The ImageJ software.

[9] = tested on: H23 cells; assay: Colony formation assay, H23 cells; type: cell-based, human; details: for reduction of number of forming colonies: 24 h treatment, 7 days; for reduction of number of forming colonies / decrease of colony size: vs control
Experimental: (§5) Colony formation assay was used to confirm the anti-cancer action of resveratrol derivatives, as it is a cell proliferation assay which can detect the ability of a single cell to grow into a colony. NSCLC cells were seeded and treated with RD2 and RD3 (1–200 μM) for 24 h. The treated cells were subjected to colony formation assay for 7 days. The crystal violet-staining colony represented the colony suppression effect of RD2 and RD3 compared to the untreated control (Figure 3a,b). The RD2 compound dramatically abolished the forming colony. Colony number was absent in response to RD2 at the concentrations of 100 and 200 μM, whereas there was no significant response to RD3 (Figure 3a,b).
(§6) Cells were seeded at a density of 300 cells/well into 6-well plate and then further treated with various concentrations resveratrol derivatives for 24 h after that the medium was replaced and the cell were incubated for colony number and colony size were investigated after fixing with methanol and acetic acid (3:1) solution and staining with 0.05% w/v crystal violet in 4% formaldehyde.

[10] = tested on: A549 cells; assay: Hoechst 33342/PI nuclear staining apoptosis assay, A549 cells; type: cell-based, human; details: 24 h
Experimental: (§7) Apoptosis is considered as an important mechanism of action of anti-cancer drugs. The important characteristics of apoptotic cells include the nuclear morphological changes, chromatin condensation, and DNA fragmentation. Hoechst 33342 and propidium iodide (PI) double staining was utilized to determine the mode of cell death by monitoring the nucleus morphology of apoptotic cells as well as their membrane integrity. Cells were seeded in a 96-well plate at the density of 1 × 10^4 cells/well and treated with various concentrations of RD2 and RD3 (10–200 μM) for 24 h. The cells were co-stained with Hoechst 33342 and PI. […] The red fluorescence of PI indicated a late apoptosis cell and necrotic cells.
(§8) This method was applied to define apoptotic and necrotic cell death by using nuclear staining with Hoechst 33342. The cells were seeded on 96-well plates at the density 1 × 10^4 cells per well in 96-well plates and incubated overnight. The cells were treated with various concentrations of RD1-RD5 and incubated for 24 h at 37 °C. Afterward, the cells were incubated with Hoechst 33342 (10 μg/mL) / PI (5 μg/mL) solution for 30 min at 37 °C. Then, they were visualized and imaged under a fluorescence microscope (Olympus DP70, Melville, NY, USA). Results are reported as a percentage of apoptotic cells.

[11] = tested on: p-mTOR in H23 cells; assay: Immunofluorescence staining of p-mTOR, H23 cells; type: cell-based, human; details: 12 h, RD2 effect at 50–100 μM
Experimental: as §2, §4

[12] = tested on: A549 cells; assay: Colony formation assay, A549 cells; type: cell-based, human; details: for reduction of number of forming colonies: 24 h treatment, 7 days; for reduction of number of forming colonies / decrease of colony size: vs control
Experimental: as §5, §6

[13] = tested on: p-Akt/Akt in A549 cells; assay: Western blot of p-Akt/Akt, A549 cells; type: cell-based, human; details: 12 h
Experimental: as §2, §3

[14] = tested on: H23 cells; assay: Hoechst 33342/PI nuclear staining apoptosis assay, H23 cells; type: cell-based, human; details: 24 h
Experimental: as §7, §8

[15] = tested on: p-Akt in A549 cells; assay: Immunofluorescence staining of p-Akt, A549 cells; type: cell-based, human; details: 10–100 µM, vs untreated control
Experimental: as §2, §4

[16] = tested on: p-Akt in H23 cells; assay: Immunofluorescence staining of p-Akt, H23 cells; type: cell-based, human; details: 10–100 µM, vs untreated control
Experimental: as §2, §4

Row | Structure (SMILES) | IC50 [1] [µM] | IC50 [2] [µM] | IC50 [3] [µM] | effect on cell viability percentages in DP cells [6] | IC50 [6] [µM] | p-mTOR signal intensity [8] | reduction of number of forming colonies ([9]; 10 μM) [%] | reduction of number of forming colonies ([9]; 100 μM) [%] | reduction of number of forming colonies ([9]; 200 μM) [%] | apoptotic ratio ([10]; 200 μM) [%] | p-mTOR signal intensity [11] | reduction of number of forming colonies ([12]; 10 μM) [%] | reduction of number of forming colonies ([12]; 100 μM) [%] | reduction of number of forming colonies ([12]; 200 μM) [%] | apoptotic ratio ([14]; 200 μM) [%] | also measured
1 | COc1cc(CCc2cc(C)c(OC)c(O)c2)cc(OC)c1O [RD1, 5-(4-hydroxy-3,5-dimethoxyphenethyl)-2-methoxy-3-methylphenol] | > 200 | 164 ± 26.2 | 129 ± 8.91 | – | – | – | – | – | – | – | – | – | – | – | – | –
2 | COc1cc(CCc2ccc(O)c(OC)c2)ccc1O [RD2, 4,4′-(ethane-1,2-diyl)bis(2-methoxyphenol)] | 138 ± 25.6 | 109 ± 10.8 | 104 ± 6.08 | did not significantly affect | > 200 | dramatic decrease | 25.43 | 94.16 | 98.23 | 86.30 | dramatic decrease | 31.04 | 98.18 | 99.40 | 75.79 | p-mTOR/mTOR protein expression levels ([4]; 100 μM, vs untreated control): significant decrease; p-mTOR/mTOR protein expression levels ([5]; 100 μM, vs untreated control): significant decrease; p-Akt/Akt protein expression levels ([7]; 50 μM, vs untreated control): significant decrease; p-Akt/Akt protein expression levels ([7]; 100 μM, vs untreated control): significant decrease; decrease of colony size ([9]; 100 μM): 64.42%; decrease of colony size ([9]; 200 μM): 65.98%; apoptotic ratio ([10]; 10 μM): 23.25%; apoptotic ratio ([10]; 100 μM): 61.26%; decrease of colony size ([12]; 100 μM): 71.66%; decrease of colony size ([12]; 200 μM): 85.42%; p-Akt/Akt protein expression levels ([13]; A549 cells, 50 μM, vs untreated control): significant decrease; p-Akt/Akt protein expression levels ([13]; A549 cells, 100 μM, vs untreated control): significant decrease; apoptotic ratio ([14]; 100 μM): 36.63%
3 | COc1ccc(CCc2ccc(O)c(OC)c2)cc1O [RD3, 4-(3-hydroxy-4-methoxyphenethyl)-2-methoxyphenol] | > 200 | > 200 | > 200 | did not significantly affect | > 200 | only minimally affected | 24.83 | 27.70 | 59.74 | 13.25 | only minimally affected | 20.44 | 21.94 | 38.91 | 18.57 | p-Akt intensity [15]: significantly increased; p-mTOR/mTOR protein expression levels ([4]; 10–100 μM): no effect; p-mTOR/mTOR protein expression levels ([5]; 10–100 μM): no effect; p-Akt/Akt protein expression levels ([7]; 10–100 μM): increased; p-Akt intensity [16]: significantly increased; effect on colony size ([9]; 10–200 μM): no significant effect; effect on colony size ([12]; 10–200 μM): no significant effect; p-Akt/Akt protein expression levels ([13]; A549 cell, 10–200 μM): increased
